The results in this text go back to US10444227B2, “Neural networks formed from cells derived from pluripotent stem cells” (FUJIFILM Cellular Dynamics, Inc., priority 2014, dated 2019).

The assay deals with iCell® DopaNeuron cultures. The assay is described as follows: Excitability pharmacology on network bursting, multi-electrode array (MEA) recording. The class given is cell-based, human. The conditions noted are these: FIG. 11. The source says: The following methods may be used to culture neural cells on a Mestro Multielectrode Array (MEA). iCell® Neurons are thawed and plated into a 48-well MEA plate pre-coated with […] Polyethyleneimine (PEI; Sigma) solution. On day 1 post-plating, 100% of spent medium is replaced with Neurobasal-A medium (NBA; Life Technologies) +10% KnockOut Serum Replacement (KSR; Life Technologies). On day 5 post-plating, 50% of spent medium is replaced with NBA +10% KSR. On day 8 post-plating, baseline activity is recorded, cells are treated with compounds, and the activity is subsequently recorded.
Data analysis and acquisition may be performed using AxIS Software (Axion Integrated Studio, Axion BioSystems). At or after day 8 post-plating, the neuronal preparation may be suitable for data acquisition. Data acquisition can include a pre-application recording (baseline), a compound application recording, followed by a post-application recording (dose). Electrical activity may be acquired using the AxIS Software. The CDlneuronconfig.datastream file can ensure the appropriate data acquisition settings are loaded into the AxIS Software.
In these experiments, iCell® DopaNeurons, iCell® Neurons, and iCell® Astrocytes were obtained from Cellular Dynamics International, Inc. (Madison, Wis.), mixed and cultured on MEA plates as described in Example 1. Cells were cultured in BrainPhys media (Bardy et al., 2015) obtained from the Salk Institute (La Jolla, Calif.).
Two examples of excitability pharmacology, THIP (top) and L-655,708 (bottom), on iCell® DopaNeuron cultures are shown in FIG. 11. THIP activates tonic inhibition, while L-655,708 decreases tonic inhibition.

Molecules are shown by their SMILES. Entries after “also recorded” stand apart in the source; their conditions may differ.

For the molecule `Oc1noc2c1CCNC2` [THIP], the network burst intensity entry is on record as “neither pharmacological agent altered network burst intensity”, the “post-burst rumbling time (duration of post-burst rumble)” value was “shortened”, the post-bursting behaviors result is listed as “both altered post-bursting behaviors” and the “time (duration) of the entire burst” value is recorded as “shortened the time of the entire burst; also recorded: shortened the durations of the entire burst”.

Regarding `CCOC(=O)c1ncn2c1[C@@H]1CCCN1C(=O)c1cc(OC)ccc1-2` [L-655,708], the “'after-quiet' following network burst” value is listed as “abolished”, the “continuous rumbling of activity” value is recorded as “inducing a continuous rumble of activity that dominated activity; also recorded: inducing a continuous rumbling of activity”, the network burst intensity entry was “neither pharmacological agent altered network burst intensity” and the network synchrony result is reported as “de-synchronized the network”. In addition, the post-bursting behaviors result is “both altered post-bursting behaviors”.
